From patent US8962621B2 (Shanghai Institute of Pharmaceutical Industry, priority 2010, dated 2015)
Where two headings read alike, the source gives them in different places.

Key:
5-HT Transporter (hSERT) = 5-HT Transporter (hSERT) (Homo sapiens, UniProt P31645); experiment: Inhibition of [3H]-5-HT reuptake in HEK 293 cells stably expressing hSERT; settings: for inhibition at 10 µM: HEK293, read-out: 5-HT Reuptake Inhibition; for 5-HT Reuptake Inhibition: 10 μmol/L final concentration (b487 prints 0.1 mmol/L), HEK 293 hSERT cells, [3H]-5-HT;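 as to all read-outs here: compound preincubated 10 min at 30 °C, then 10 min uptake, filter-bound radioactivity counted by scintillation, inhibition relative to total (blank) minus non-specific (positive control) uptake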
DA Transporter (hDAT) = DA Transporter (hDAT) (Homo sapiens, UniProt Q01959); experiment: Inhibition of [3H]-DA reuptake in HEK 293 cells stably expressing hDAT; settings: for inhibition at 10 µM: HEK293, read-out: DA Reuptake Inhibition; for DA Reuptake Inhibition: 10 μmol/L final concentration (b487 prints 0.1 mmol/L), HEK 293 hDAT cells, [3H]-DA
NA Transporter (hNAT) = NA Transporter (hNAT) (Homo sapiens, UniProt P23975); experiment: Inhibition of [3H]-NA reuptake in HEK 293 cells stably expressing hNAT; settings: for inhibition at 10 µM: HEK293, read-out: NA Reuptake Inhibition; for NA Reuptake Inhibition: 10 μmol/L final concentration (b487 prints 0.1 mmol/L), HEK 293 hNAT cells, [3H]-NA
male ICR mice = experiment: Mice tail suspension test; format: in vivo; settings: for IT (sec), immobility time: 20.0 mg/kg single intragastric administration, 1 h before test, 4 min observation, n=12; for Improvement (%): 20.0 mg/kg single oral administration, versus blank control IT; for effect on immobility time in the tail suspension test (in words): efficacy similar to Venlafaxine
Description: Through intragastric administration, 10 mL·kg^−1 of each sample (physiological saline for the blank control group) is administrated. After 1 h of the treatment, the mouse is held with a medical tape at a position around 2 cm from the tip of its tail and hung upside-down in the suspension cage with its head 5 cm away from the bottom of the cage. The observation starts right after the mouse is suspended for 2 min and continues for 4 min. The time during which the mouse is immobile (no struggling or only tiny movements of its body/limbs) in this 4 min is accumulated (IT, immobility time). The percentage of the improvement is calculated according to the equation: Improvement %=[IT (blank control group)−IT (compound treatment group)]/IT (blank control group)×100%

[1] = Acute toxicity experiment (single oral gavage); settings: mouse, in vivo
male Kunming mice = experiment: Mice forced swimming test; format: in vivo; settings: for effect in the forced swimming test (in words): 20 mg/kg; for IT (sec), immobility time: 20.0 mg/kg single intragastric administration, 1 h before test, last 4 min of 6 min, n=12
Description: Through intragastric administration, 10 mL·kg^−1 of each sample (physiological saline for the blank control group) is administrated. The mice are pre-screened for swimming one day before the actual test. The mouse is placed into water (25° C., 10 cm deep) in a glass tank (height 20 cm, diameter 14 cm) and forced to swim for 6 min. Those who stop swimming at around 70-160 s are chosen for the actual test which starts 24 h later. After 1 h of the administration, the forced swimming test is performed by placing the animal into the above-mentioned environment to swim for 6 min. The accumulative immobility time for the last 4 min is recorded. Data is statistically analyzed with t-test.

[2] = system: Histidine auxotroph mutant of mouse salmonella TA97, TA98, TA100 and TA102; format: cell-based; settings: for bacteriostatic action: 5000 μg per dish, TA98 without S9 and TA97 with S9, none at other dosages; for Ames test result: TA97, TA98, TA100, TA102, with or without S9, all test dosages
Excerpt: 5. […] 6. Bacterial Reverse Mutation Test of Compounds VI-1 VI-2 and VI16 • Strains: Histidine auxotroph mutant of mouse salmonella TA97, TA98, TA100 and TA102. • Test method: The one reported in Maron DM et al: (1983) Mutay Res. 113, 173-216 is used. • Results: The test consists of two parts, i.e., −S9 and +S9. […] No bacteriostatic actions to all the strains are observed at all the other dosages, and the growth background is good.

rats = experiment: Learned helplessness experiment (conditioned avoidance test); format: in vivo
Excerpt: (1) Principles • This is an animal model of depression. In this experiment, an animal is placed under conditions with aversive stimulus which it can't escape. […] This is a well recognized depression state, in which the level of catecholamine in the animal's brain is reduced. An antidepressant can act against this state. The learned helplessness model is sensitive to a variety of antidepressants used in a sub-long period (3-7 d), including tricyclic antidepressants, monoamine oxidase inhibitors, monoamine reuptake inhibitors and atypical antidepressants.
(2) Test Method • The animals are grouped. The pre-shock animals are generated the first day by performing inescapable electric shock. The pre-shock animals are given foot electric shock (0.8 mA, 15 s) for 60 times (1 min interval). Rats in the control group are only put into the cage for a same period of time but without any electric shock. • The administration of drugs starts the next day and lasts for one week. […] The conditioned avoidance test is conducted 24 h after the last administration to determine the number of times of successful avoidance and the incubation period of escape.

[3] = 30 mg/kg, one week, test 24 h after last administration, n = 10
[4] = Venlafaxine 30 mg/kg, VI-2 at 3 doses (20, 10, 5 mg/kg)

Chain of 5-HT Transporter (hSERT) (P31645 whole entry): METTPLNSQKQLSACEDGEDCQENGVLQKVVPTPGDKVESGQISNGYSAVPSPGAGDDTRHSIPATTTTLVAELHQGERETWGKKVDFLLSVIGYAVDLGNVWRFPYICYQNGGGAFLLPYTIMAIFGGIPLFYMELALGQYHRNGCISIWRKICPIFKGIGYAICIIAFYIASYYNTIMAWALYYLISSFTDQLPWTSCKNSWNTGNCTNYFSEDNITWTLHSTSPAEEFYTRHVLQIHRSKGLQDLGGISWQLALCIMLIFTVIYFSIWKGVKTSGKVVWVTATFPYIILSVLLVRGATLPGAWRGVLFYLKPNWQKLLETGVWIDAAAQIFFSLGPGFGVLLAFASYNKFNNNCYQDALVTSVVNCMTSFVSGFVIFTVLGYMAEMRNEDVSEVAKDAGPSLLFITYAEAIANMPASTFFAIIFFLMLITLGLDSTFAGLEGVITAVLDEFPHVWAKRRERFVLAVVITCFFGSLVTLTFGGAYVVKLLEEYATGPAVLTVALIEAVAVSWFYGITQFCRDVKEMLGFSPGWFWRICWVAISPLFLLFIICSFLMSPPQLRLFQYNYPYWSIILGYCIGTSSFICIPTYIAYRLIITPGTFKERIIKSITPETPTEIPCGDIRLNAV
Chain of DA Transporter (hDAT) (Q01959 whole entry): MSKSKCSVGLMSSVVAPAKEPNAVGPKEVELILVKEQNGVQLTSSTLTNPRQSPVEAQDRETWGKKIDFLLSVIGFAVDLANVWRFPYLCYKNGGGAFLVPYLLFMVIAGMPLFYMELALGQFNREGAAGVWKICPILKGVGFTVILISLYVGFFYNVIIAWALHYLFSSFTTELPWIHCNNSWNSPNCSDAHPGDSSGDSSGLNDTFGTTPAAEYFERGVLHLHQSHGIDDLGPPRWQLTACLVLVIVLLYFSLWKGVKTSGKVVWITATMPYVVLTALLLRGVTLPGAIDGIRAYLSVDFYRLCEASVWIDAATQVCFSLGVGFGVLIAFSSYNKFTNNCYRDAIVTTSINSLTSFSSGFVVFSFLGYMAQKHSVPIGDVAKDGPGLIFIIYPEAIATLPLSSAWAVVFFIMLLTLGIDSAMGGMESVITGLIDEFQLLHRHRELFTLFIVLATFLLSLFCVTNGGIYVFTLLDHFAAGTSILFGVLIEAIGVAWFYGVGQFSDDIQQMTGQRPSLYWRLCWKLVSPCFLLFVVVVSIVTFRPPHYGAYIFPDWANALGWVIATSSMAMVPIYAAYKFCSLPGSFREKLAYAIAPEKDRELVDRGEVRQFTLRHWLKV
Chain of NA Transporter (hNAT) (P23975 whole entry): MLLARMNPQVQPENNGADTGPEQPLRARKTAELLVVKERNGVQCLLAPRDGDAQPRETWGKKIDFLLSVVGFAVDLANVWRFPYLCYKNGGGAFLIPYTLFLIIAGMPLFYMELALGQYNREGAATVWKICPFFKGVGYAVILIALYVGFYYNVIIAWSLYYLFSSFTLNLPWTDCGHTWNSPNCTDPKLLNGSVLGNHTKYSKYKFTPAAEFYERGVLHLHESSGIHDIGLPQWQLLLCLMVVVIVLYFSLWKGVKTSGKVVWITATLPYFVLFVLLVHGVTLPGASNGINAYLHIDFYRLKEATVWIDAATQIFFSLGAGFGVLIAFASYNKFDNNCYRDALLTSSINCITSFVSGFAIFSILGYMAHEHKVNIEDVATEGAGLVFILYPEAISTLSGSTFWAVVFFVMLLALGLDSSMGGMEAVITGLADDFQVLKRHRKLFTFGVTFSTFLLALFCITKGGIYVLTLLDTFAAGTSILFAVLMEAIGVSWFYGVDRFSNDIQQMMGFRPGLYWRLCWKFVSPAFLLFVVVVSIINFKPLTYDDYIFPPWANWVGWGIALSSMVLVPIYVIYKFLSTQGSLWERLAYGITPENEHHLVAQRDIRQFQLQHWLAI

SMILES	inhibition effect towards the reuptake of 5-HT (in words) (5-HT Transporter (hSERT))	inhibition at 10 µM (5-HT Transporter (hSERT)) [%]	inhibition at 10 µM (DA Transporter (hDAT)) [%]	inhibition at 10 µM (NA Transporter (hNAT)) [%]	IT (sec), immobility time (male ICR mice) [s]	Improvement (%) (male ICR mice)	effect on immobility time in the tail suspension test (in words) (male ICR mice; 20 mg/kg)	effect in the forced swimming test (in words) (male Kunming mice)	IT (sec), immobility time (male Kunming mice) [s]	5-HT Reuptake Inhibition (5-HT Transporter (hSERT)) [%]	DA Reuptake Inhibition (DA Transporter (hDAT)) [%]	NA Reuptake Inhibition (NA Transporter (hNAT)) [%]	other results
CN(C)CCC(c1csc2ccccc12)N1CCCCC1 (centres unmarked)	relatively strong inhibition effect	90.5	80.2	92.1	45.21 ± 28.19	54.42	significant reduction in the immobility time	significant reduction in the immobility time	62.1 ± 42.9	–	–	–	LD50 ([1]; mice, single oral gavage, Bliss method, read-out: LD50): 870 mg/kg; bacteriostatic action [2]: bacteriostatic action is showed; Ames test result [2]: negative
CCN(CC)CCC(c1ccc(Cl)c(Cl)c1)N1CCCC1 (centres unmarked) [VI-1, N,N-diethyl-3-(3,4-dichlorophenyl)-3-(pyrrolidin-1-yl)-propylamine]	relatively strong inhibition effect	98.2	101	101	48.17 ± 38.29	51.44	significant reduction in the immobility time	significant reduction in the immobility time	57.1 ± 37.8	–	–	–	LD50 ([1]; po): 1050 mg/kg; bacteriostatic action [2]: bacteriostatic action is showed; Ames test result [2]: negative
CN(C)CCC(c1cc2ccccc2s1)N1CCCC1 (centres unmarked) [VI-19, N,N-dimethyl-3-(benzothiophen-2-yl)-3-(pyrrolidin-1-yl)-propylamine]	–	95.3	75.6	91.2	50.28 ± 21.30	49.31	significant reduction in the immobility time	significant reduction in the immobility time	60.7 ± 26.7	–	–	–	–
CN(C)CCC(c1cc2ccccc2s1)N1CCCCC1 (centres unmarked) [VI-22, N,N-dimethyl-3-(benzothiophen-2-yl)-3-piperidinyl-propylamine]	relatively strong inhibition effect	–	–	–	65.25 ± 28.39	34.22	–	significant reduction in the immobility time	75.4 ± 40.3	96.3	96.5	99.8	–
CN(C)CCC(c1c[nH]c2ccccc12)N1CCOCC1 (centres unmarked) [VI-31, N,N-dimethyl-3-(indol-3-yl)-3-morpholinyl-propylamine]	relatively strong inhibition effect	–	–	–	78.36 ± 23.00	20.84	–	significant difference from that of the blank control	99.7 ± 43.7	87.9	75.6	88.1	–
COc1ccc2cc(C(CCN(C)C)N3CCCC3)ccc2c1Cl (centres unmarked) [VI-36, N,N-dimethyl-3-(5-chloro-6-methoxynaphthalen-2-yl)-3-(pyrrolidin-1-yl)-propylamine]	–	98.3	87.2	97.8	39.91 ± 18.35	59.29	significant reduction in the immobility time	significant difference from that of the blank control	90.6 ± 48.0	–	–	–	–
CN(C)CCCC(c1csc2ccccc12)N1CCOCC1 (centres unmarked) [VI-46, N,N-dimethyl-4-(benzothiophen-3-yl)-4-morpholinyl-butylamine]	relatively strong inhibition effect	–	–	–	86.19 ± 35.87	13.01	–	significant difference from that of the blank control	97 ± 48.5	92.3	78.0	89.5	–
COc1ccc(C(CN(C)C)C2(O)CCCCC2)cc1 (centres unmarked) [Venlafaxine, reference compound]	–	–	52.4	96.4	36.97 ± 21.10	62.73	–	–	77.4 ± 47.2	–	–	–	Incubation period of escape (rats; [3]): 72.8 ± 77.26 s; Number of times of successful avoidance (rats; [3]): 19.4 ± 6.88; incubation period of escape (in words) (rats; [4]): significantly shortened incubation period of escape; times of successful avoidance (in words) (rats; [4]): relatively more times of successful avoidance; immobility time (male ICR mice; 20 mg/kg): 36.97 ± 21.10 s
